Columns and labels:
Type in all cases: cell-based
TRPC6 [1] = biological target: T1, TRPC6 (Homo sapiens, UniProt Q9Y210); assay: Fura-2 calcium imaging in HEK-TRPC6 cells; also whole-cell patch clamp of hTRPC6 in HEK293; set-up: human TRPC6 expressed in HEK cells
T1 sequence (Q9Y210 1-931): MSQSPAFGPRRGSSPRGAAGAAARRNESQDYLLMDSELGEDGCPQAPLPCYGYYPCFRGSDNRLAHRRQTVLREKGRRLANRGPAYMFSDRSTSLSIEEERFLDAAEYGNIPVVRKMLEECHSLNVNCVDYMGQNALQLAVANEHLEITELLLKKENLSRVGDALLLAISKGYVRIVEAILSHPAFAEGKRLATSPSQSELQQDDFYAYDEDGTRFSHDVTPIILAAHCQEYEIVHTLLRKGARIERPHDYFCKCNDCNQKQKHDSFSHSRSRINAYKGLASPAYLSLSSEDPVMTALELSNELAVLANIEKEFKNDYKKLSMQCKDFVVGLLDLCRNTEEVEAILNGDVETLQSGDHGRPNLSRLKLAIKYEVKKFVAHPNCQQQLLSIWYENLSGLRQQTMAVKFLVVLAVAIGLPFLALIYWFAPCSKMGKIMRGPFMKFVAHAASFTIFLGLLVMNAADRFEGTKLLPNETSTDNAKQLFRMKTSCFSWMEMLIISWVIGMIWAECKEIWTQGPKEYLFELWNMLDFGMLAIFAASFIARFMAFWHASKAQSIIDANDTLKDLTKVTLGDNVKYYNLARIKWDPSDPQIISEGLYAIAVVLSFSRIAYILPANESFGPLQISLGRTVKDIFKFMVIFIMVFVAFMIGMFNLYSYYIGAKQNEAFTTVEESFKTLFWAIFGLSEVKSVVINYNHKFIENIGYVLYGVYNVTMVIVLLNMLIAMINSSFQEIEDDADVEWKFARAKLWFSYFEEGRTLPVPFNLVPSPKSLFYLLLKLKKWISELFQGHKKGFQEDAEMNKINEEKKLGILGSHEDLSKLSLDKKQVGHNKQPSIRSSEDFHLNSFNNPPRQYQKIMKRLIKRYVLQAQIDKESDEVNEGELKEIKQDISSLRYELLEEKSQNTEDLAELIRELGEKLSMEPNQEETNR

TRPC6 [2] = biological target: T1, TRPC6; assay: Fura-2 calcium imaging in HEK-TRPC6 cells, inhibition of GSK-2934A-induced signal; set-up: human TRPC6 stably expressed in HEK cells
Orai1 = biological target: T2, Orai1 (Homo sapiens, UniProt Q96D31); assay: ICRAC current inhibition in HEK cells over-expressing Orai1/STIM1 (data not shown); settings: HEK293; read-out: % inhibition at 10 μmol/L
T2 construct: Orai1/STIM1 over-expressed in HEK cells; with STIM1
T2 sequence (Q96D31 whole entry): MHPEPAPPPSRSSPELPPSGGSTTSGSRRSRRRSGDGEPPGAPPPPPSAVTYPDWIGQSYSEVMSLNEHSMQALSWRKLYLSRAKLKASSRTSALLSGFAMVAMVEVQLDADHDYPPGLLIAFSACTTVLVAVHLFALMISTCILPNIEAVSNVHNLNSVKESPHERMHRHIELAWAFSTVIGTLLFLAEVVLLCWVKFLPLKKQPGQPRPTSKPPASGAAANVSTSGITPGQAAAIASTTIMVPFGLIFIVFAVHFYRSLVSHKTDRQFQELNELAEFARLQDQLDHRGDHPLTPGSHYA
T2 sequence (Q13586 23-685 partner): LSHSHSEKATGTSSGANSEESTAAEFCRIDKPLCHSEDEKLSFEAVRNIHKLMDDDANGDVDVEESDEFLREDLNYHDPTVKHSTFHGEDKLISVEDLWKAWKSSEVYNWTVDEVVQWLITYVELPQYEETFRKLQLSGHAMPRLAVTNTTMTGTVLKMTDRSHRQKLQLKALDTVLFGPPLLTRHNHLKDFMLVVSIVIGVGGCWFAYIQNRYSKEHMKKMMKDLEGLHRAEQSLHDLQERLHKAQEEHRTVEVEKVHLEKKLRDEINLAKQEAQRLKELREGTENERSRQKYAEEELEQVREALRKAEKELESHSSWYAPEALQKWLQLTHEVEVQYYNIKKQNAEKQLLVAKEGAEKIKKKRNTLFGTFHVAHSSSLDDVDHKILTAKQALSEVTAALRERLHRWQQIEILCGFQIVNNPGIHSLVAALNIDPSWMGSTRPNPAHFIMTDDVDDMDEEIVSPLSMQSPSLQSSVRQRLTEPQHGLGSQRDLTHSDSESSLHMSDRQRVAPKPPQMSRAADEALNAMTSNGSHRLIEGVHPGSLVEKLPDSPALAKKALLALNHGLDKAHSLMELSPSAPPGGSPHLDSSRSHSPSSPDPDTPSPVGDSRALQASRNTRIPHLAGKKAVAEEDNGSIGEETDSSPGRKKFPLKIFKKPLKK

O=C(c1cc2c(s1)CCCCC2)N1CCC(n2c(=O)[nH]c3ccccc32)CC1 [GSK-2934A, GSK1702934A]
EC50 (TRPC6 [1]): 6.6 pEC50

Cc1sc(Nc2ccc(Cl)cc2F)nc1C(=O)N1CCC[C@H](C)[C@@H]1C [GSK-3503A, GSK2833503A]
IC50 (TRPC6 [2]): 7.8 pIC50

COc1ccc(OC)c(-c2ccc(NC(=O)c3ccncc3F)cc2)c1 [Synta66]
inhibition at 10 µM (Orai1): 94 ± 3%
